How the values were obtained:
[1] = test system: BJ-TERT/LT/ST/RAS^V12 cells; experiment: Counter screening with biologically active compounds; format: cell-based, human; details: for biologically active compounds that suppress compound-induced cell death: 36 bioactive compounds of Table 1, 24 hours, alamar blue; for effect of MEK1/2 inhibitor (U0126) on compound-induced cell death: U0126 10 uM
Description: Biologically active compounds listed in Table 1 were dissolved in BJ medium at 10× final concentration and aliquoted into eppendorf tubes. 100 μL of each 10× solution was transferred to column 1 to column 12 or column 13 to column 24 of a single row in a 384-well daughter plate. This plate was designated as ‘10× biologically active plate’. In order to prepare lethal compound solution, Erastin and compounds 3, 6, 27, and 36 were dissolved in BJ medium at a concentration of 100 μg/mL, 400 μg/mL, 400 μg/mL, 100 μg/mL, and 200 μg/mL, respectively. Empty daughter plates were filled with 50 μL BJ media except for columns 5 and 13 where 100 μL of each lethal solution was transferred. After lethal solution transfer, 2-fold dilution series across columns 5 to 12 and columns 13 to 20 was made by transferring 50 μL compound solution to the next column successively (8-point dilution series), with mixing. These five plates were each designated ‘10× lethal plate’. Five assay plates were prepared by seeding 4,000 BJ-TERT/LT/ST/RAS^V12 cells per well in 32 μL of growth media in black, clear bottom 384-well plates. Cells in assay plates were first treated with biologically active compounds by transferring 4 μL from the 10× inhibitor plate. Cells were then treated with each lethal compound in a 2-fold dilution series by transferring 4 μL solution from each 10× lethal plate. […] Percent growth inhibition (% GI) was calculated by the following formula using fluorescence intensity values: % GI=100*(1−(X−N)/([…])) wherein X is the fluorescent intensity value measured at 590 nm for cells treated with biologically active compound and lethal compound; N is the fluorescent intensity value measured at 590 nm for a control containing no cells (i.e. biologically active compound in growth media); and P is the fluorescent intensity value measured at 590 nm for a control containing no lethal compound (i.e., cells treated with biologically active compound). Counter Screening with Iron Chelators

[2] = test system: BJ-derived cell lines (BJ-TERT/LT/ST/RAS^V12 cells); experiment: Vi-Cell analysis (trypan blue exclusion); format: cell-based, human; details: 24 hours
Description: 200,000 cells were seeded in 6-well plates and treated with the indicated amount of 2-fold dilution series concentration of a candidate compound in 2 mL BJ growth medium. After 24 hours, cells were released with trypsin/EDTA, harvested in 1.1 mL growth medium, and transferred to a Vi-Cell (Beckman Coulter) disposable cup. After, trypan blue staining, 100 images of sample were taken and analysis of the images was carried out automatically by a Vi-Cell cell viability analyzer (Beckman Coulter).

[3] = test system: A549, Calu-1, PaCa, and HCT116 cells; experiment: Alamar blue assay in KRAS-mutation-harboring cancer cells; format: cell-based, human
Description: A549, Calu-1, HCT116 and MIA PaCa-2 cell lines have an oncogenic mutation in the KRAS gene. Compounds which tested positive in the oncogenic HRAS primary screen were also tested for their selectivity against oncogenic KRAS which is more commonly mutated in human cancers.

HL-60(TB) = experiment: cells; details: Homo sapiens; for GI50: HL-60; for CC50: HL-60, read-out: LC 50%
MOLT-4 = experiment: NCI60 anti-cancer screening; details: for GI50 / CC50: Homo sapiens; for GI50 / GI 100%: MOLT-4; for CC50: MOLT-4, read-out: LC 50%; for GI 100%: Leukemia
RPMI-8226 = experiment: NCI60 anti-cancer screening; details: for GI50 / CC50: Homo sapiens; for GI50 / GI 100%: RPMI-8226; for CC50: RPMI-8226, read-out: LC 50%; for GI 100%: Leukemia
SR = experiment: NCI60 anti-cancer screening; details: for GI50 / CC50: Homo sapiens; for CC50: read-out: LC 50%; for GI 100%: Leukemia
NCI-H522 = experiment: NCI60 anti-cancer screening; details: for GI50 / CC50: Homo sapiens; for GI50 / GI 100%: NCI-H522; for CC50: NCI-H522, read-out: LC 50%; for GI 100%: Non-small cell lung carcinoma
M14 = experiment: NCI60 anti-cancer screening; details: for GI50 / CC50: Homo sapiens; for GI50 / GI 100%: M14; for CC50: M14, read-out: LC 50%; for GI 100%: Melanoma
SK-MEL-28 = experiment: NCI60 anti-cancer screening; details: for GI50 / CC50: Homo sapiens; for GI50 / GI 100%: SK-MEL-28; for CC50: SK-MEL-28, read-out: LC 50%; for GI 100%: Melanoma
OVCAR-4 = experiment: NCI60 anti-cancer screening; details: for GI50 / CC50: Homo sapiens; for GI50 / GI 100%: OVCAR-4; for CC50: OVCAR-4, read-out: LC 50%; for GI 100%: Ovarian Cancer
ACHN = experiment: NCI60 anti-cancer screening; details: for GI50 / CC50: Homo sapiens; for CC50: read-out: LC 50%; for GI 100%: Renal Cancer
SN12C = experiment: NCI60 anti-cancer screening; details: for GI50 / CC50: Homo sapiens; for CC50: read-out: LC 50%; for GI 100%: Renal Cancer
TK-10 = experiment: NCI60 anti-cancer screening; details: for GI50 / CC50: Homo sapiens; for GI50 / GI 100%: TK-10; for CC50: TK-10, read-out: LC 50%; for GI 100%: Renal Cancer
PC-3 = experiment: NCI60 anti-cancer screening; details: for GI50 / CC50: Homo sapiens; for GI50 / GI 100%: PC-3; for CC50: PC-3, read-out: LC 50%; for GI 100%: Prostate Cancer
DU-145 = experiment: NCI60 anti-cancer screening; details: for GI 100% / GI50: DU-145; for GI 100%: Prostate Cancer; for GI50 / CC50: Homo sapiens; for CC50: DU-145, read-out: LC 50%
HS 578T = experiment: NCI60 anti-cancer screening; details: for GI 100%: HS 578T, Breast Cancer; for GI50 / CC50: Homo sapiens, Hs-578T; for CC50: read-out: LC 50%
MDA-MB-435 = experiment: NCI60 anti-cancer screening; details: for GI50 / CC50: Homo sapiens; for GI50 / GI 100%: MDA-MB-435; for CC50: MDA-MB-435, read-out: LC 50%; for GI 100%: Breast Cancer
[4] = test system: BJ cell system (BJ-TERT, BJ-TERT/LT/ST, BJ-TERT/LT/ST/RAS^V12, DRD cells); experiment: Alamar blue potency and selectivity in the engineered BJ cell system; details: alamar blue; for degree of selectivity against HRAS^G12V: oncogenic-RAS-expressing vs non-oncogenic-RAS-expressing BJ cells
Description: Empty “step-daughter plates” were filled with 50 μL DMEM, except for columns 3 and 13, where 100 μL of hit compound solution were cherry-picked from daughter plates. After compound transfer, 2-fold dilution series across columns 3 through 12 and columns 13 through 22 was made by transferring 50 μL of compound solution to the next column successively (10-point dilution series), with extensive mixing. Hit-picking and 2-fold dilution series were carried out using Biomek FX Span-8 module (Beckman Coulter). Assay plates were prepared by seeding 1,000 BJ-TERT, BJ-TERT/LT/ST, and BJ-TERT/LT/ST/RAS^V12 cells per well in 36 μL growth medium. Cells in assay plates were treated with compounds from step-daughter plates by transferring 4 μL. The final concentration of the compound was 5.33 μg/mL to 0.01 μg/mL in this 10-point, 2-fold dilution series. Assay plates were returned to the culture incubator and maintained for 48 hours before adding alamar blue.
Fresh daughter plates were made from the mother plate and cherry-picked hits from the first round, 2-fold dilution series experiment as described above. Assay plates were prepared by seeding 1,000 BJ-TERT, BJ-TERT/LT/ST, BJ-TERT/LT/ST/RAS^V12 or BJ-TERT/p53DD/CDK4/cyclinD1/ST/RAS^V12 (DRD) cells per well in 32 μL growth media. Cells in the assay plates were treated with compounds from the step-daughter plate by transferring 8 μL solution. The final concentration of the compound was 10.66 μg/mL to 0.02 μg/mL in a 10-point, 2-fold dilution series manner. Assay plates were returned to the culture incubator and maintained for 48 hours before adding alamar blue.
Cells were seeded in 384-well assay plates, treated with candidate compounds, and incubated in the culture incubator in 40 μL culture volume per well. […] Plates were incubated further for 16 hours to allow reduction of alamar blue, which results in the generation of red fluorescence. The fluorescence intensity was determined using a Victor 3 plate reader (Perkin Elmer) with a 535 nm excitation filter and a 590 nm emission filter.
In the subsequent two-fold dilution series testing, selectivity was calculated as the ratio of GI50 values in BJ-TERT/LT/ST and BJ-TERT/LT/ST/RAS^V12 cells. […] DRD cells are also derived from BJ primary cells and the effects of mutations in both lines should be similar.

UO-31 = experiment: NCI60 anti-cancer screening; details: for GI50 / CC50: Homo sapiens; for GI50 / GI 100%: UO-31; for CC50: UO-31, read-out: LC 50%; for GI 100%: Renal Cancer

## CCc1c(O)c2c(c(O)c1O[C@H]1O[C@@H](COC(C)=O)[C@H](OC(C)=O)[C@@H](CC(C)=O)[C@@H]1OC(C)=O)C(=O)C(O[C@@H]1O[C@H](COC(C)=O)[C@@H](OC(C)=O)[C@H](OC(C)=O)[C@H]1OC(C)=O)=C(O[C@@H]1O[C@H](COC(C)=O)[C@@H](OC(C)=O)[C@H](OC(C)=O)[C@H]1OC(C)=O)C2=O [Compound 6]
[1]
  biologically active compounds that suppress compound-induced cell death: only reduced glutathione (GSH) was able to inhibit
[2]
  potency and selectivity by trypan blue exclusion (in words): confirmed the potency and selectivity
[3]
  activity in KRAS-mutation-harboring cancer cells (in words): reasonable potency
HL-60(TB)
  GI50: 0.516 µM
  CC50: 8.25 µM
MOLT-4
  GI50: 0.783 µM
  CC50: > 10 µM
  GI 100%: 3.91 µM
RPMI-8226
  GI50: 2.37 µM
  CC50: > 10 µM
  GI 100%: 6.77 µM
SR
  GI50: 2.65 µM
  CC50: > 10 µM
  GI 100%: 8.4 µM
NCI-H522
  GI50: 0.49 µM
  CC50: 5.12 µM
  GI 100%: 1.79 µM
M14
  GI50: 2.07 µM
  CC50: 9.28 µM
  GI 100%: 4.38 µM
SK-MEL-28
  GI50: 1.46 µM
  CC50: 6.63 µM
  GI 100%: 3.11 µM
OVCAR-4
  GI50: 5.71 µM
  CC50: > 10 µM
  GI 100%: >10 µM
ACHN
  GI50: 8.76 µM
  CC50: > 10 µM
  GI 100%: >10 µM
SN12C
  GI50: 8.1 µM
  CC50: > 10 µM
  GI 100%: >10 µM
TK-10
  GI50: 2.76 µM
  CC50: > 10 µM
  GI 100%: >10 µM
PC-3
  GI50: 5.07 µM
  CC50: > 10 µM
  GI 100%: >10 µM
DU-145
  GI 100%: >10 µM
  GI50: 5.28 µM
  CC50: > 10 µM
HS 578T
  GI 100%: >10 µM
  GI50: 3.31 µM
  CC50: > 10 µM
MDA-MB-435
  GI50: 2.21 µM
  CC50: 9.07 µM
  GI 100%: 4.38 µM
[4]
  degree of selectivity against HRAS^G12V: 4-8 fold

## COCCOC(=O)C1=C(C)NC2=C(C(=O)CC(c3ccc(Cl)cc3)C2)C1c1ccccc1F (centres unmarked) [Compound 3]
[1]
  biologically active compounds that suppress compound-induced cell death: anti-oxidants (GSH, BHT, Vit. E), iron chelators (L-mim, DFOM), and a protein synthesis inhibitor (cycloheximide)
  effect of MEK1/2 inhibitor (U0126) on compound-induced cell death: completely blocked
[3]
  activity in KRAS-mutation-harboring cancer cells (in words): less activity
HL-60(TB)
  GI50: 9.8 µM
  CC50: > 10 µM
MOLT-4
  GI50: 8.39 µM
  CC50: > 10 µM
  GI 100%: >10 µM
SR
  GI50: 7.15 µM
  CC50: > 10 µM
  GI 100%: >10 µM
UO-31
  GI50: 6.82 µM
  CC50: > 10 µM
  GI 100%: >10 µM
HS 578T
  GI 100%: >10 µM
  GI50: 9.31 µM
  CC50: > 10 µM
[4]
  degree of selectivity against HRAS^G12V: 4-8 fold

## C=C1CCC2C(C)(C)CCC[C@]2(C)C1CC/C(C)=C\CC/C(C)=N/NC(N)=S (some centres unmarked) [Compound 36]
[1]
  biologically active compounds that suppress compound-induced cell death: iron chelators (L-Mim and DFOM) and a protein synthesis inhibitor (cycloheximide) were effective
  effect of MEK1/2 inhibitor (U0126) on compound-induced cell death: inability of MEK1/2 inhibitors to suppress
[2]
  potency and selectivity by trypan blue exclusion (in words): confirmed the growth inhibitory potency and selectivity
[3]
  activity in KRAS-mutation-harboring cancer cells (in words): active
HL-60(TB)
  GI50: 0.163 µM
  CC50: 2.62 µM
MOLT-4
  GI50: 0.0773 µM
  CC50: 7.39 µM
  GI 100%: 1.1 µM
RPMI-8226
  GI50: 0.194 µM
  CC50: 6.98 µM
  GI 100%: 0.889 µM
SR
  GI50: 1.32 µM
  CC50: 8.78 µM
  GI 100%: 3.4 µM
NCI-H522
  GI50: 0.0829 µM
  CC50: 1.18 µM
  GI 100%: 0.309 µM
M14
  GI50: 0.384 µM
  CC50: 4.8 µM
  GI 100%: 1.59 µM
SK-MEL-28
  GI50: 0.239 µM
  CC50: 2.07 µM
  GI 100%: 0.592 µM
OVCAR-4
  GI50: 0.147 µM
  CC50: 1.31 µM
  GI 100%: 0.405 µM
ACHN
  GI50: 0.366 µM
  CC50: 3.78 µM
  GI 100%: 1.43 µM
SN12C
  GI50: 0.351 µM
  CC50: 3.67 µM
  GI 100%: 1.35 µM
TK-10
  GI50: 0.296 µM
  CC50: 3.47 µM
  GI 100%: 1.08 µM
UO-31
  GI50: 0.125 µM
  CC50: 1.47 µM
  GI 100%: 0.385 µM
PC-3
  GI50: 0.548 µM
  CC50: 4.26 µM
  GI 100%: 1.82 µM
DU-145
  GI 100%: 2.35 µM
  GI50: 1.14 µM
  CC50: 4.84 µM
HS 578T
  GI 100%: 2.27 µM
  GI50: 0.42 µM
  CC50: > 10 µM
MDA-MB-435
  GI50: 0.175 µM
  CC50: 3 µM
  GI 100%: 0.781 µM
[4]
  degree of selectivity between BJ-TERT/LT/ST/RAS^V12 and BJ-TERT: up to 16 fold
[4]; structural analogs and hits
  growth inhibitory activity and selectivity in the BJ cell system (in words): slightly lower potency and selectivity than the original hit

Reference: US8546421B1, “Oncogenic-RAS-signal dependent lethal compounds” (The Trustees of Columbia University in the City of New York, priority 2007, dated 2013)
